pKd: −log10 of the molar value. “And” between values parts separate entries of the source, which are not always exact repeats. Equal values may be shown once.
How the values were obtained:
[1] = Single-dose oral pharmacokinetics in rats; format: in vivo, Sprague Dawley rats; settings: Sprague Dawley, rat; single oral dose 100 mg/kg, male rats, whole blood
Procedure: Single doses of each compound were administered as oral suspensions by gavage in 0.5% carboxy methylcellulose at 100 mg/kg. Whole blood levels were collected for at least 72 hours after dose administration. Bioanalyses were performed with liquid chromatography-tandem mass spectrometry […].
Single-dose pharmacokinetics (PK) in male Sprague Dawley (SD) rats (n=4) were assessed for each compound, and the maximum or peak whole blood concentration and area under the curve are shown in Table 5.

[2] = molecular target: T1, Hb (Homo sapiens, UniProt P69905); assay: Dose-dependent P50 shift in non-sickling human blood; format: cell-based; set-up: Hemoglobin modification, studies using non-sickling AA blood; from tissue; host or cells: non-sickling (AA) human blood, red blood cells; settings: compared to Voxelotor at equivalent drug-Hb occupancy levels
Procedure: Non-sickling human blood was incubated with test compounds at 0.25-2 mM concentrations at 37° C. for 1 hour in 96-well round bottom plates. At conclusion, RBCs were washed once with PBS, followed by lysis with deionized water. Approximately 100 μl aliquots of individual lysates were added to 3 mL of 0.1M potassium phosphate buffer, pH 7.0 in a cuvette and subjected to hemoximetry analysis using a Hemox™ Analyzer (TCS Scientific Corp.) as previously described. Change in p50 values (Δp50) was calculated by subtracting the p50 values of treated samples from the value of the control sample and expressing the difference as a percentage of control p50 values.
Target sequence in this assay (P69905 2-142 limits assumed): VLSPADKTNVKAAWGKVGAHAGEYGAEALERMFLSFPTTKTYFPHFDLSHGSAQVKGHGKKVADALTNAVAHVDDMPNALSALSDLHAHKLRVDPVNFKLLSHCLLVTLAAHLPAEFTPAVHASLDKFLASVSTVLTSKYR
Target sequence in this assay (P68871 2-147 partner limits assumed): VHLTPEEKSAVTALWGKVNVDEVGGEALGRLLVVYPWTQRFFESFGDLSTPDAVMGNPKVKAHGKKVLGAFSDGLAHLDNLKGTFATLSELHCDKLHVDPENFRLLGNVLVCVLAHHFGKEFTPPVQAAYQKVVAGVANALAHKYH

[3] = molecular target: T1, Hb; assay: Affinity (KD) for Hb; format: binding
Target sequence in this assay (P69905 2-142 limits assumed): as the sequence (P69905 2-142 limits assumed) above
Target sequence in this assay (P68871 2-147 partner limits assumed): as the sequence (P68871 2-147 partner limits assumed) above

[4] = 14-day repeat-dose oral pharmacokinetics in rats; format: in vivo; settings: SD, rat, whole blood, repeat oral doses 100 mg/kg for 14 days
Procedure: (§1) Repeat doses of each compound were administered once daily as oral suspensions by gavage in 0.5% carboxy methylcellulose for 14 days at 100 mg/kg. Whole blood was collected at 7 time-points for up to 24 hours during the final dosing interval on Day 14. Clinical observations, body weights, and food consumption were recorded throughout the 14 day study. Clinical chemistry and hematologic parameters were assessed, and histopathology was performed on organs after 14 days of exposure to study drug.
(§2) Repeat oral doses of each compound were administered by oral gavage for 14 days to male and female SD rats (n=3). […] Steady state exposures for the final dosing interval on Day 14 were similar to total compound exposure from single-dose PK.

[5] = 14-day repeat-dose safety (clinical observations, histopathology) in rats; format: in vivo, SD rats; settings: for safety in non-clinical toxicology: above anticipated therapeutic drug levels; for clinical or histopathologic changes after 14 days of exposure: oral 100 mg/kg once daily for 14 days, rats
Procedure: as §1, §2

[6] = molecular target: T1, Hb; assay: Hb modification (drug-adduct formation) in SS blood suspensions by cation-exchange HPLC; format: binding; set-up: Blood suspensions from subjects with homozygous SCD; from tissue; host or cells: blood suspensions (20% hematocrit) from donors with homozygous SCD; lysates of the treated red cells; settings: 2 mM, 4 biological replicates
Procedure: All compounds (Comp 1-13) and comparator molecules (VZHE-039, PP-14, INN-310, and Voxelotor) were evaluated following established procedures. Blood samples from individual donors with homozygous SCD (obtained with informed consent) were diluted using Hemox buffer solution with the addition of glucose (10 mM) and BSA (0.2%) to adjust hematocrit of the blood suspensions to 20%, which standardizes the procedure to normalize the ratio of RBCs to drug, for assay consistency and reproducibility. Briefly, blood suspensions were incubated under room air in the presence of various concentrations of test compounds (0-2 mM) at 37° C. for 1 hour in 96-well round bottom plates. Subsequently, the suspensions were incubated with a hypoxic gas mixture (2.5% Oxygen gas/balance Nitrogen gas) at 37° C. for up to 2 hours prior to fixation with 2% glutaraldehyde solution without exposure to air. The fixated blood aliquots were evaluated by microscopic morphological analysis (image analysis on Image J software) to identify the proportion of sickled and non-sickled RBCs, and sickle inhibition calculated based on the % change from negative control (DMSO).
The residual samples were then washed in phosphate-buffered saline, and hemolyzed in hypotonic lysis buffer, with or without sodium borohydride (50 mM). Aliquots obtained from the lysates with or without sodium borohydride (to reduce Schiff base adducts) were also assessed for level of Hb modification (drug-adduct formation) by cation-exchange HPLC (Hitachi D-7000 Series, Hitachi Instruments, Inc., San Jose, CA) with a weak cation-exchange column (Poly CAT A: 50 mm×4.6 mm, Poly LC, Inc., Columbia, MD). Hemoglobin isotype peaks are eluted with a linear gradient of phase B from 0% to 80% at A410 nm (Mobile Phase A: 40 mM Bis-Tris, 2 mM KCN, pH 6.9; Phase B: 40 mM Bis-Tris, 2 mM KCN, 0.2 M sodium chloride, pH 6.55). Clarified lysate from normal human adult […] (Hb A), as well as commercial standards containing approximately equal amounts of Hb F, A, S and C (Helena Laboratories, Beaumont, TX), were utilized as reference isotypes. Reduced samples were used to assess “fixed adduct” formation (dependent on RBC membrane permeability), whereas non-reduced samples assessed drug-adduct formation independent of drug permeability.
Target sequence in this assay (P69905 2-142): as the sequence (P69905 2-142 limits assumed) above
Target sequence in this assay (P68871 with tags, fused parts or gaps E7V partner): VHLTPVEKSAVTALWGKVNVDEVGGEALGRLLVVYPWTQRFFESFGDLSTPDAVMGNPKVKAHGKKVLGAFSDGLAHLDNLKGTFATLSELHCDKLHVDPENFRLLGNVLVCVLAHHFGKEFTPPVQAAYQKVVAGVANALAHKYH

[7] = test system: RBCs from donors with homozygous SCD; assay: Oxygen-independent sickle inhibition in SS blood suspensions under anoxia (100% nitrogen); format: cell-based, human; settings: anoxia
Procedure: To establish oxygen-independent sickle inhibition, the incubation chamber was subsequently opened and exposed to room air for 15 minutes to ensure complete re-oxygenation and reversal of the sickled cells to normal round cells. Reversal was confirmed by microscopy. The incubation chamber was then closed, and the assay was repeated with incubation in 100% nitrogen gas for 1 hour (for screening), or up to 2.5 h (for time-course studies), with collection and fixation of blood aliquots at defined intervals. Aliquot samples were again subjected to microscopic morphological analysis of bright field images to identify the proportion of sickled and non-sickled cells, and sickle inhibition calculated.

[8] = molecular target: T1, Hb; assay: Drug partitioning studies, fixed and unfixed Hb adducts in non-sickling AA blood; format: cell-based; set-up: Hemoglobin modification, studies using non-sickling AA blood; from tissue; host or cells: non-sickling (AA) human blood, red blood cells; settings: 2 mM; for Fixed Adducts (%) / Unfixed Adduct (%): 6 biological replicates; for Partitioning Ratio (%): fixed relative to unfixed adducts
Procedure: RBC partitioning studies were conducted both for SS RBCs following sickling studies above, or as separate independent studies with non-sickle blood. Briefly, aliquots of blood samples, which had been incubated with test molecules, were lysed either in deionized water (un-fixed), or in water containing 50 mM sodium borohydride (fixed). Samples were subjected to cation exchange HPLC analyses, as described above. Modified […] (Hb adducts) was determined as a proportion of total Hb in each sample, and partitioning ratio was determined as the relative fraction of Hb modification of fixed samples compared to corresponding non-fixed samples. The partitioning ratio is the relative fraction of Hb that was modified intracellularly by molecules that permeated the RBC membrane, as compared to unfixed adducts which reflect Hb binding without RBC membrane permeation.
Target sequence in this assay (P69905 2-142 limits assumed): as the sequence (P69905 2-142 limits assumed) above
Target sequence in this assay (P68871 2-147 partner limits assumed): as the sequence (P68871 2-147 partner limits assumed) above

[9] = patients with SCD, most patients; cited from earlier work
[10] = female rats, read-out: AUC0-∞ (female)
[11] = female rats, read-out: Cmax (female)
[12] = male rats, read-out: AUC0-∞ (male)
[13] = male rats, read-out: Cmax (male)

Structure (SMILES)	AUC(0-inf) [1]	Cmax [1]	half-life [1]	change in p50 of Hb in human blood (in words) [2]	pKd [3]	AUC(0-inf) [4, 10]	Cmax [4, 11]	AUC(0-inf) [4, 12]	Cmax [4, 13]	safety in non-clinical toxicology [5]	clinical or histopathologic changes after 14 days of exposure [5]	Hb Modification (%) [6]	polymer destabilizing effect / sickle inhibition in anoxia (in words) [7]	Fixed Adducts (%) [8]	Unfixed Adduct (%) [8]	Partitioning Ratio (%) [8]	increase in Hb concentrations [9]
O=Cc1c(O)cccc1OCc1cccnc1 [Comp 1, 2-hydroxy-6-(pyridin-3-ylmethoxy)benzaldehyde]	4e+06 ng·h/mL and 17400 µM·h	211000 ng/mL and 919 µM	5 h	relatively weak changes in p50	4.22	1.9e+06 ng·h/mL and 8080 µM·h	122000 ng/mL and 534 µM	2.4e+06 ng·h/mL and 10500 µM·h	161000 ng/mL and 703 µM	without hepatotoxicity	No clinical or histopathologic changes	95.8 ± 6.2%	most potent and sustained polymer destabilizing effects observed to date	96.0 ± 1.9%	97.4 ± 2.8%	98.6 ± 2.8%	
O=Cc1c(O)cccc1OCc1ccccn1 [Comp 2, 2-hydroxy-6-(pyridin-2-ylmethoxy)benzaldehyde]	4.5e+06 ng·h/mL and 19800 µM·h	220000 ng/mL and 958 µM	9.7 h	relatively weak changes in p50		4.9e+06 ng·h/mL and 21500 µM·h	254000 ng/mL and 1.11 mM	4.7e+06 ng·h/mL and 20400 µM·h	254000 ng/mL and 1.11 mM	without hepatotoxicity	No clinical or histopathologic changes	95.5 ± 5.7%	most potent and sustained polymer destabilizing effects observed to date	95.2 ± 2.3%	96.3 ± 2.6%	98.9 ± 2.9%	
O=Cc1c(O)cccc1OCc1ncccc1F [Comp 5, 2-((3-fluoropyridin-2-yl)methoxy)-6-hydroxybenzaldehyde]	3e+06 ng·h/mL and 12000 µM·h	86000 ng/mL and 348 µM	8.8 h	relatively weak changes in p50		5.1e+06 ng·h/mL and 20600 µM·h	246000 ng/mL and 993 µM	4.2e+06 ng·h/mL and 17100 µM·h	211000 ng/mL and 854 µM	without hepatotoxicity	No clinical or histopathologic changes	98.2 ± 2.5%		93.1 ± 3.3%	95.8 ± 3.3%	97.2 ± 3.2%	
O=Cc1c(O)cccc1OCc1cccc(CO)n1 [VZHE-039, reference compound]	2.3e+06 ng·h/mL and 8780 µM·h	102000 ng/mL and 394 µM	8.4 h		4.00	3.2e+06 ng·h/mL and 12200 µM·h	232000 ng/mL and 894 µM	3e+06 ng·h/mL and 11600 µM·h	195000 ng/mL and 753 µM		clinical and histopathologic changes in the liver, including hepatocyte necrosis	90.7 ± 9.9%		90.9 ± 3.4%	92.4 ± 5.6%	98.5 ± 4.3%	
CC(C)n1nccc1-c1ncccc1COc1cccc(O)c1C=O [Voxelotor, reference compound]						2.6e+06 ng·h/mL and 7620 µM·h	185000 ng/mL and 548 µM	2.3e+06 ng·h/mL and 6760 µM·h	142000 ng/mL and 422 µM			92.3 ± 6.8%	did not demonstrate any sickle inhibition in anoxic conditions	77.0 ± 3.8%	80.3 ± 6.3%	96.1 ± 3.7%	at least 1 g/dl

From patent US20240109843A1, “BENZALDEHYDE COMPOUNDS WITH DIRECT POLYMER DESTABILIZING EFFECTS TO TREAT SICKLE CELL DISEASE” (VIRGINIA COMMONWEALTH UNIVERSITY, priority 2018, published 2024)
